The source of these data is patent US5677309A (priority 1996, dated 1997).

Structures can show the parent of a compound that is named as a salt.

The first test has as its target GABAa receptor (benzodiazepines (BDZ) receptor). Briefly: GABAa receptor (benzodiazepine receptor) binding assay, 3H-RO15-1788 [3H-Flumazenil] displacement in rat cortical tissue. The following applies: 0.5 nM 3H-RO15-1788, 30 min at 4° C., pH 7.4.
With `O=c1[nH]c2ccccc2c2nn(-c3ccccc3)c(=O)n12` [Compound 1, 2-phenyl-5,6-dihydro-5-oxo-[6H]-1,2,4-triazolo[4,3-c]quinazolin-3-one], affinity was put at a Ki of 5.9 nM. Still for that read-out and setting: the figure for `O=c1n(-c2ccccc2)nc2n1CNc1ccccc1-2` [Compound 2, 2-phenyl-5,6-dihydro-1,2,4-triazolo[4,3-c]quinazolin-3-one] is 12 nM.

On to `O=c1[nH]c2ccccc2c2nn(-c3ccccn3)c(=O)n12` [Compound 5, 2-(2-Pyridyl)-5,6-dihydro-5-oxo-[6H]-1,2,4-triazolo[4,3-c]quinazolin-3-one], for which the Ki worked out at 7.6 nM. The same measure, in the same setting: the figure for `O=c1n(-c2ccccn2)nc2n1CNc1ccccc1-2` [Compound 13, 2-(2-Pyridyl)-5,6-dihydro-1,2,4-triazolo[4,3-c]quinazolin-3-one] is 63 nM.

The compound `CN(C)Cc1ccc(-n2nc3n(c2=O)CNc2ccccc2-3)cc1` [Compound 21, 2-[4-(N,N-dimethylaminomethyl)phenyl]-5,6-dihydro-1,2,4-triazolo-[4,3-c]quinazolin-3-one hydrochloride] showed an inhibitory constant (Ki) of 53 nM. On the same count and under the same terms, the figure for `O=c1[nH]c2ccccc2c2nn(-c3ccccc3)c(=S)n12` [Compound 28, 2-phenyl-5,6-dihydro-5-oxo-6[H]-1,2,4-triazolo[4,3-c]quinazolin-3-thione] is 4.5 nM; for `S=c1n(-c2ccccc2)nc2n1CNc1ccccc1-2` [Compound 29, 2-phenyl-5,6-dihydro-1,2,4-triazolo[4,3-c]quinazolin-3-thione] it is 636 nM. Same read-out and setting: the figure for `O=c1[nH]c2c(c3nn(-c4ccccc4)c(=O)n13)CCCC2` [Compound 30, 2-phenyl-5,6-dihydro-5-oxo-[6H]-7,8,9,10-tetrahydro-1,2,4-triazolo[4,3-c]-quinazolin-3-one] is 4.5 nM. The same measure, in the same setting: as for `O=c1n(-c2ccccc2)nc2n1CNC1=C2CCCC1` [Compound 31, 2-phenyl-5,6,7,8,9,10-hexahydro-1,2,4-triazolo[4,3-c]-quinazolin-3-one], the figure is 8 nM.

The next test concerns benzodiazepine receptor.
Test: not given
The following applies: Hunkeler et al., 1981; cited from earlier work.
As to imidazo[1,5-a][1,4]benzodiazepine, the “inhibition of benzodiazepine and beta-carboline binding” value is “high affinity competitive inhibitor”.

The subject of another test is benzodiazepine receptor.
Test: not given
The settings on record: in animals and humans; by itself; cited from earlier work.
In the case of imidazo[1,5-a][1,4]benzodiazepine, the intrinsic pharmacological activity result is on record as “little intrinsic pharmacological activity”.
